Results taken from US12365692B2, “6-hydroxy-8-oxatricyclo[3.2.1.02,4]octane-2-carboxamide derivatives for inducing chondrogenesis for treating joint damage” (NOVARTIS AG, priority 2018, dated 2025).

Tested on: ALP in NHAC (normal human articular chondrocytes)
Assay: Alkaline Phosphatase (ALP) activity assay: ALP staining and quantitation in NHACs (prevention of chondrocyte hypertrophy)
Type: cell-based
Conditions: Chondrocyte, 288 h, human IL-1 beta 10 ng/mL, 12 days; for IC50: Fast Blue RR staining, high content imaging; for Emax: read-out: ALP in NHAC (% Efficacy)
Method in brief: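 NHACs were plated with test compound in DMEM containing 10% FBS, and human IL-1 beta was added 5 h later at 10 ng/mL final. Cultures were kept 12 days at 37° C, 5% CO2. Cells were then fixed, ALP-stained with Fast Blue RR/Naphthol AS-MX, and hypertrophic cells were imaged and quantified by high-content imaging.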

| Compound | IC50 | Emax |
| --- | --- | --- |
| O=C(Nc1cc(Cl)cc(C(F)(F)F)c1)[C@]12C[C@@]1(c1ccnc(F)c1)[C@H]1O[C@@H]2C[C@@H]1O (racemic) [Example 19, rac-(1R,2R,4S,5R,6S)—N-(3-chloro-5-(trifluoromethyl)phenyl)-4-(2-fluoropyridin-4-yl)-6-hydroxy-8-oxatricyclo[3.2.1.02,4]octane-2-carboxamide] | > 30 µM | 0% |
| Cn1cc([C@@]23C[C@]2(C(=O)Nc2cc(C(F)(F)F)cc(C4CC4)n2)[C@H]2C[C@H](O)[C@@H]3O2)c(C(F)(F)F)n1 (racemic) [Example 46, rac-(1R,2R,4S,5R,6S)—N-(6-cyclopropyl-4-(trifluoromethyl)pyridin-2-yl)-6-hydroxy-4-(1-methyl-3-(trifluoromethyl)-1H-pyrazol-4-yl)-8-oxatricyclo[3.2.1.02,4]octane-2-carboxamide] | 27 µM | 82% |
| Cn1cc([C@@]23C[C@]2(C(=O)Nc2cc(C(F)(F)F)ccc2F)[C@H]2C[C@H](O)[C@@H]3O2)c(C(F)(F)F)n1 (racemic) [Example 57, rac-(1R,2R,4S,5R,6S)-N-(2-fluoro-5-(trifluoromethyl)phenyl)-6-hydroxy-4-(1-methyl-3-(trifluoromethyl)-1H-pyrazol-4-yl)-8-oxatricyclo[3.2.1.02,4]octane-2-carboxamide] | > 30 µM | 24% |
| COc1cc([C@@]23C[C@]2(C(=O)Nc2cccc(C(F)(F)F)c2F)[C@H]2C[C@H](O)[C@@H]3O2)ccn1 (racemic) [Example 31, rac-(1R,2R,4S,5R,6S)—N-(2-fluoro-3-(trifluoromethyl)phenyl)-6-hydroxy-4-(2-methoxypyridin-4-yl)-8-oxatricyclo[3.2.1.02,4]octane-2-carboxamide] | > 30 µM | 15% |
| O=C(Nc1cc(C(F)(F)F)cc(Cl)n1)[C@]12C[C@@]1(c1ccnc(F)c1)[C@H]1O[C@@H]2C[C@@H]1O (racemic) [Example 4, rac-(1R,2R,4S,5R,6S)—N-(6-chloro-4-(trifluoromethyl)pyridin-2-yl)-4-(2-fluoropyridin-4-yl)-6-hydroxy-8-oxatricyclo[3.2.1.02,4]octane-2-carboxamide] | > 30 µM | 0% |
| COc1cc([C@@]23C[C@]2(C(=O)Nc2cc(C(F)(F)F)ccc2C)[C@H]2C[C@H](O)[C@@H]3O2)ccn1 (racemic) [Example 30, rac-(1R,2R,4S,5R,6S)-6-hydroxy-4-(2-methoxypyridin-4-yl)-N-(2-methyl-5-(trifluoromethyl)phenyl)-8-oxatricyclo[3.2.1.02,4]octane-2-carboxamide] | > 30 µM | 27% |
| O=C(Nc1cc(C(F)(F)F)ccc1F)[C@]12C[C@@]1(c1cccc(C(F)(F)F)c1)[C@H]1O[C@@H]2C[C@@H]1O (racemic) [Example 81, rac-(1R,2R,4S,5R,6S)—N-(2-fluoro-5-(trifluoromethyl)phenyl)-6-hydroxy-4-(3-(trifluoromethyl)phenyl)-8-oxatricyclo[3.2.1.02,4]octane-2-carboxamide] | > 30 µM | 47% |
| O=C(Nc1cc(C(F)(F)F)ccc1F)[C@]12C[C@@]1(c1ccnc(F)c1)[C@H]1O[C@@H]2C[C@@H]1O (racemic) [Example 17, rac-(1R,2R,4S,5R,6S)—N-(2-fluoro-5-(trifluoromethyl)phenyl)-4-(2-fluoropyridin-4-yl)-6-hydroxy-8-oxatricyclo[3.2.1.02,4]octane-2-carboxamide] | > 30 µM | 17% |
| COc1cc(NC(=O)[C@]23C[C@@]2(c2cn(C)nc2C(F)(F)F)[C@H]2O[C@@H]3C[C@@H]2O)cc(C(F)(F)F)c1 (racemic) [Example 61, rac-(1R,2R,4S,5R,6S)-6-hydroxy-N-(3-methoxy-5-(trifluoromethyl)phenyl)-4-(1-methyl-3-(trifluoromethyl)-1H-pyrazol-4-yl)-8-oxatricyclo[3.2.1.02,4]octane-2-carboxamide] | > 30 µM | 29% |
| O=C(Nc1cccc(C(F)(F)F)c1)[C@]12C[C@@]1(c1ccnc(F)c1)[C@H]1O[C@@H]2C[C@@H]1O (racemic) [Example 9, rac-(1R,2R,4S,5R,6S)-4-(2-fluoropyridin-4-yl)-6-hydroxy-N-(3-(trifluoromethyl)phenyl)-8-oxatricyclo[3.2.1.02,4]octane-2-carboxamide] | > 30 µM | 32% |
| COc1cc([C@@]23C[C@]2(C(=O)Nc2cc(F)cc(C(F)(F)F)c2)[C@H]2C[C@H](O)[C@@H]3O2)ccn1 (racemic) [Example 73, rac-(1R,2R,4S,5R,6S)—N-(3-fluoro-5-(trifluoromethyl)phenyl)-6-hydroxy-4-(2-methoxypyridin-4-yl)-8-oxatricyclo[3.2.1.02,4]octane-2-carboxamide] | > 30 µM | 49% |
| Cn1cc([C@@]23C[C@]2(C(=O)Nc2ccc(N4CCOCC4)c(C(F)(F)F)c2)[C@H]2C[C@H](O)[C@@H]3O2)c(C(F)(F)F)n1 (racemic) [Example 64, rac-(1R,2R,4S,5R,6S)-6-hydroxy-4-(1-methyl-3-(trifluoromethyl)-1H-pyrazol-4-yl)-N-(4-morpholino-3-(trifluoromethyl)phenyl)-8-oxatricyclo[3.2.1.02,4]octane-2-carboxamide] | > 30 µM | 28% |
| O=C(Nc1cc(F)cc(C(F)(F)F)c1)[C@]12C[C@@]1(c1ccnc(F)c1)[C@H]1O[C@@H]2C[C@@H]1O (racemic) [Example 16, rac-(1R,2R,4S,5R,6S)—N-(3-fluoro-5-(trifluoromethyl)phenyl)-4-(2-fluoropyridin-4-yl)-6-hydroxy-8-oxatricyclo[3.2.1.02,4]octane-2-carboxamide] | > 30 µM | 34% |
| O=C(Nc1ccc(Cl)c(C(F)(F)F)c1)[C@]12C[C@@]1(c1ccnc(F)c1)[C@H]1O[C@@H]2C[C@@H]1O (racemic) [Example 18, rac-(1R,2R,4S,5R,6S)—N-(4-chloro-3-(trifluoromethyl)phenyl)-4-(2-fluoropyridin-4-yl)-6-hydroxy-8-oxatricyclo[3.2.1.02,4]octane-2-carboxamide] | > 30 µM | 25% |
| Cn1cc([C@@]23C[C@]2(C(=O)Nc2ccc(Cl)c(C(F)(F)F)c2)[C@H]2C[C@H](O)[C@@H]3O2)c(C(F)(F)F)n1 (racemic) [Example 58, rac-(1R,2R,4S,5R,6S)—N-(4-chloro-3-(trifluoromethyl)phenyl)-6-hydroxy-4-(1-methyl-3-(trifluoromethyl)-1H-pyrazol-4-yl)-8-oxatricyclo[3.2.1.02,4]octane-2-carboxamide] | > 30 µM | 29% |
| Cc1c(NC(=O)[C@]23C[C@@]2(c2cn(C)nc2C(F)(F)F)[C@H]2O[C@@H]3C[C@@H]2O)cccc1C(F)(F)F (racemic) [Example 50, rac-(1R,2R,4S,5R,6S)-6-hydroxy-4-(1-methyl-3-(trifluoromethyl)-1H-pyrazol-4-yl)-N-(2-methyl-3-(trifluoromethyl)phenyl)-8-oxatricyclo[3.2.1.02,4]octane-2-carboxamide] | > 30 µM | 33% |
| COc1cc([C@@]23C[C@]2(C(=O)Nc2ccc(F)c(C(F)(F)F)c2)[C@H]2C[C@H](O)[C@@H]3O2)ccn1 (racemic) [Example 32, rac-(1R,2R,4S,5R,6S)—N-(4-fluoro-3-(trifluoromethyl)phenyl)-6-hydroxy-4-(2-methoxypyridin-4-yl)-8-oxatricyclo[3.2.1.02,4]octane-2-carboxamide] | > 30 µM | 4% |
| Cn1cc([C@@]23C[C@]2(C(=O)Nc2cc(Cl)cc(C(F)(F)F)c2)[C@H]2C[C@H](O)[C@@H]3O2)c(C(F)(F)F)n1 (racemic) [Example 59, rac-(1R,2R,4S,5R,6S)-N-(3-chloro-5-(trifluoromethyl)phenyl)-6-hydroxy-4-(1-methyl-3-(trifluoromethyl)-1H-pyrazol-4-yl)-8-oxatricyclo[3.2.1.02,4]octane-2-carboxamide] | > 30 µM | 35% |
| O=C(Nc1cccc(C(F)(F)F)c1F)[C@]12C[C@@]1(c1ccnc(F)c1)[C@H]1O[C@@H]2C[C@@H]1O (racemic) [Example 14, rac-(1R,2R,4S,5R,6S)—N-(2-fluoro-3-(trifluoromethyl)phenyl)-4-(2-fluoropyridin-4-yl)-6-hydroxy-8-oxatricyclo[3.2.1.02,4]octane-2-carboxamide] | > 30 µM | 8% |
| COc1cc([C@@]23C[C@]2(C(=O)Nc2cc(C(F)(F)F)c(Cl)cn2)[C@H]2C[C@H](O)[C@@H]3O2)ccn1 (racemic) [Example 22, rac-(1R,2R,4S,5R,6S)—N-(5-chloro-4-(trifluoromethyl)pyridin-2-yl)-6-hydroxy-4-(2-methoxypyridin-4-yl)-8-oxatricyclo[3.2.1.02,4]octane-2-carboxamide] | > 30 µM | 27% |
| COc1cc([C@@]23C[C@]2(C(=O)Nc2cccc(C(F)(F)F)c2C)[C@H]2C[C@H](O)[C@@H]3O2)ccn1 (racemic) [Example 27, rac-(1R,2R,4S,5R,6S)-6-hydroxy-4-(2-methoxypyridin-4-yl)-N-(2-methyl-3-(trifluoromethyl)phenyl)-8-oxatricyclo[3.2.1.02,4]octane-2-carboxamide] | > 30 µM | 0% |
| N#Cc1ccc(C(F)(F)F)cc1NC(=O)[C@]12C[C@@]1(c1ccnc(F)c1)[C@H]1O[C@@H]2C[C@@H]1O (racemic) [Example 78, rac-(1R,2R,4S,5R,6S)—N-(2-cyano-5-(trifluoromethyl)phenyl)-4-(2-fluoropyridin-4-yl)-6-hydroxy-8-oxatricyclo[3.2.1.02,4]octane-2-carboxamide] | > 30 µM | 40% |
| COc1cc([C@@]23C[C@]2(C(=O)Nc2ccc(C)c(C(F)(F)F)c2)[C@H]2C[C@H](O)[C@@H]3O2)ccn1 (racemic) [Example 28, rac-(1R,2R,4S,5R,6S)-6-hydroxy-4-(2-methoxypyridin-4-yl)-N-(4-methyl-3-(trifluoromethyl)phenyl)-8-oxatricyclo[3.2.1.02,4]octane-2-carboxamide] | > 30 µM | 13% |
